pIC50: −log10 of the molar value. The source made the active and inactive calls. The rule behind the calls is not given here.
Assays:
[1] = Hepatotoxicity in nude mouse at 30 mg/kg, IG administered every two days for 21 days in presence of vincristine by H and E staining based analysis; type: toxicity, organism-based; conditions: in vivo, po, 504 h, time 21 day
[2] = Tmax in Sprague-Dawley rat at 30 mg/kg, po measured upto 24 hrs by UPLC/MS/MS analysis; type: ADME, organism-based; conditions: in vivo
ECa-109 cell line [3] = assay: Synergistic antitumor activity against in vincristine resistant p-gp overexpressing human Eca-109 cells xenografted in nude mouse assessed as increase in apoptosis at 30 mg/kg, IG administered every two days for 21 days in presence of vincristine by TUNEL analysis; type: functional, organism-based; conditions: time 21.0 day
[4] = target: T1, ATP-dependent translocase ABCB1 (Homo sapiens, UniProt P08183); assay: Inhibition of P-gp efflux in vincristine resistant human Eca-109 cells assessed as effect on accumulation of H33342; type: cell-based
T1 sequence (P08183 whole entry): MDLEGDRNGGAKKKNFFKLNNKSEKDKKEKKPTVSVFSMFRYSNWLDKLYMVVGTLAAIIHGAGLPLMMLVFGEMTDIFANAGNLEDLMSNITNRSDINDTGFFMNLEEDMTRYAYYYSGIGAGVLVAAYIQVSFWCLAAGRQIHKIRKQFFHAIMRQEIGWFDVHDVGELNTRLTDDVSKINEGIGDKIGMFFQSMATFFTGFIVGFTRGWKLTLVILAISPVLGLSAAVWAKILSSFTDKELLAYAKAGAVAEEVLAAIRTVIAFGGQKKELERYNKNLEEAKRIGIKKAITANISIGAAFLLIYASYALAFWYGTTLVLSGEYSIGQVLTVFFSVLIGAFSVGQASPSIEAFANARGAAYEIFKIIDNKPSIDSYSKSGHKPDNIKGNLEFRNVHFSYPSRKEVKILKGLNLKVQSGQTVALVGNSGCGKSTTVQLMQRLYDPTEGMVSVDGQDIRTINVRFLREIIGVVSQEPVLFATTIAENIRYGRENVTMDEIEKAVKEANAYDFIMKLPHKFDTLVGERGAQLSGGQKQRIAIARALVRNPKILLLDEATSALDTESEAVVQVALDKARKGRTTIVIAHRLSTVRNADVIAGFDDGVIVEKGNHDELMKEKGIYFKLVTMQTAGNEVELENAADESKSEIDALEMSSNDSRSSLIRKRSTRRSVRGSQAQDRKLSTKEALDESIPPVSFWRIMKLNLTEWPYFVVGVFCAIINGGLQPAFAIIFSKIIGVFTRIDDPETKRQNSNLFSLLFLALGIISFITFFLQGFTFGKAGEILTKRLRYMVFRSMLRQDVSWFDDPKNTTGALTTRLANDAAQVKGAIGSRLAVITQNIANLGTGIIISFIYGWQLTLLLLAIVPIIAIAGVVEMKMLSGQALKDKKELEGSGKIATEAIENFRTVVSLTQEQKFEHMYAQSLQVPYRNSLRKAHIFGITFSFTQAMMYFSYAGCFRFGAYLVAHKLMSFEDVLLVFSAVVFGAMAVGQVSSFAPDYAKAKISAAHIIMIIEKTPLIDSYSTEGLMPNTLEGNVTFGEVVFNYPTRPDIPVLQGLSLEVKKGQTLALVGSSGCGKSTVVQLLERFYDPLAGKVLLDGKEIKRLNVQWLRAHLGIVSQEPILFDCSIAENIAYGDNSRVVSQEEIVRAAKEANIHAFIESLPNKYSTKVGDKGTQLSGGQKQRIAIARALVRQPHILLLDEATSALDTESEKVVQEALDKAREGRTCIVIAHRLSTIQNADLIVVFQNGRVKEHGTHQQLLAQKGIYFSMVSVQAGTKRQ

[5] = Inhibition of clone formation in vincristine resistant human Eca-109 cells at 2 uM incubated for 48 hrs by crystal violet staining based analysis; type: functional
ECa-109 cell line [6] = assay: Induction of apoptosis in vincristine resistant human Eca-109 cells assessed as viable cells at 5 uM incubated for 24 hrs in presence of vincristine by AnnexinV-FITC/PI staining based flow cytometric analysis (reference value: 89.2%); type: functional; conditions: read-out: Activity
[7] = target: T1, ATP-dependent translocase ABCB1; assay: Inhibition of P-gp efflux in vincristine resistant human Eca-109 cells assessed as effect on accumulation of calcein-AM; type: cell-based
[8] = target: T2, Broad substrate specificity ATP-binding cassette transporter ABCG2 (Homo sapiens, UniProt Q9UNQ0); assay: Binding affinity to ABCG2 in vincristine resistant human Eca-109 cells assessed as stabilization of protein at 100 uM incubated for 30 mins by thermal shift assay; type: cell-based; conditions: eca-109, 0.5 h
T2 sequence (Q9UNQ0 whole entry): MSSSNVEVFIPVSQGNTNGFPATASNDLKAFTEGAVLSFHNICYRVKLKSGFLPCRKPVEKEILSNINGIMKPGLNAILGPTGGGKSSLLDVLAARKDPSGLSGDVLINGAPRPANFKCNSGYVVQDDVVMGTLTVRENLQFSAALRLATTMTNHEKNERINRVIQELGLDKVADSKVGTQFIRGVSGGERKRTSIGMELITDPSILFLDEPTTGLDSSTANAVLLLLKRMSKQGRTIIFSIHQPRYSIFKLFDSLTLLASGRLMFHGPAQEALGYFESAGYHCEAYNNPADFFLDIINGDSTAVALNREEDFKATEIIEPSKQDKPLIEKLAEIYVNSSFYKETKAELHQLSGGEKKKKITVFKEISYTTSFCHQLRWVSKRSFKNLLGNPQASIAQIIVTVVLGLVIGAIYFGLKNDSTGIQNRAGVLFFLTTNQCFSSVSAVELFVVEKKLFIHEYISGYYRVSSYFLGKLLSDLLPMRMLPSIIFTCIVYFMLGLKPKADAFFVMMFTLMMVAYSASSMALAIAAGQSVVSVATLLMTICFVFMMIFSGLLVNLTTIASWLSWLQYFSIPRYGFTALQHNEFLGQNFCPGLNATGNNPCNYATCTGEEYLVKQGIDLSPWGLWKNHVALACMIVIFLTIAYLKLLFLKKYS

ECa-109 cell line [9] = assay: Induction of apoptosis in vincristine resistant human Eca-109 cells assessed as necrotic cells at 2.5 uM incubated for 24 hrs in presence of vincristine by AnnexinV-FITC/PI staining based flow cytometric analysis (reference value: 0.35%); type: functional
ECa-109 cell line [10] = assay: Induction of apoptosis in vincristine resistant human Eca-109 cells assessed as viable cells at 1 uM incubated for 24 hrs in presence of vincristine by AnnexinV-FITC/PI staining based flow cytometric analysis (reference value: 89.2%); type: functional; conditions: read-out: Activity
ECa-109 cell line [11] = assay: Reversal of vincristine-resistance in human Eca-109 cells assessed as fold reversal by measuring cell viability at 1 uM incubated for 48 hrs by CCK-8 method relative to vincristine alone; type: functional
ECa-109 cell line [12] = assay: Induction of apoptosis in vincristine resistant human Eca-109 cells assessed as late apoptotic cells at 5 uM incubated for 24 hrs by AnnexinV-FITC/PI staining based flow cytometric analysis (reference value: 7.19%); type: functional
ECa-109 cell line [13] = assay: Synergistic antitumor activity against in vincristine resistant p-gp overexpressing human Eca-109 cells xenografted in nude mouse assessed as inhibition of tumor proliferation at 30 mg/kg, IG administered every two days for 21 days in presence of vincristine; type: functional, organism-based; conditions: time 21.0 day
ECa-109 cell line [14] = assay: Induction of apoptosis in vincristine resistant human Eca-109 cells assessed as early apoptotic cells at 1 uM incubated for 24 hrs by AnnexinV-FITC/PI staining based flow cytometric analysis (reference value: 2.30%); type: functional
ECa-109 cell line [15] = assay: Reversal of VCR -resistance in human Eca-109 cells assessed as cell viability at 2.5 uM incubated for 48 hrs by CCK-8 method (reference value: 6830.0+/-537.0 nM); type: functional, cell-based; conditions: ECa-109, 48 h

With `COc1cc2c(cc1OC)C(Cc1ccc(OC)c(OCc3ccccc3)c1)N(C)CC2` (stereo not given) the Activity [1] was “Non-Toxic”, the Tmax [2] was 22.8 min and the Activity (ECa-109 cell line [3]) was “Active”. For the same compound, the “inhibition (INH)” value [4] was “Active”, the inhibition at 2 µM [5] was 100% and the viability at 5 µM (ECa-109 cell line [6]) was 64.5%. The “inhibition (INH)” value [7] was “Active”, the Activity [8] was “Not Active” and the Activity (ECa-109 cell line [9]) was 0.42%. For the same compound, the viability at 1 µM (ECa-109 cell line [10]) was 76.1%, the “fold change (FC)” value (ECa-109 cell line [11]) was 3.7 and the Activity (ECa-109 cell line [12]) was 6.58%. For the same compound, the Activity (ECa-109 cell line [13]) was “Active”, the Activity (ECa-109 cell line [14]) was 2.07% and the pIC50 (ECa-109 cell line [15]) was 7.18.
